From publication PMC12196291, “Absolute Configuration and Chiroptical Properties of Flexible Drug Avapritinib” (Pharmaceuticals, 2025)

Biological target: C-KIT (D816V) (Homo sapiens, UniProt P10721, D816V)
Assay: in vitro kinase activity assay (substrate/ATP, 384-well, ELISA-BMG readout), positive control
Type: biochemical

C-KIT (D816V), sequence (P10721 546-976 D816V limits assumed): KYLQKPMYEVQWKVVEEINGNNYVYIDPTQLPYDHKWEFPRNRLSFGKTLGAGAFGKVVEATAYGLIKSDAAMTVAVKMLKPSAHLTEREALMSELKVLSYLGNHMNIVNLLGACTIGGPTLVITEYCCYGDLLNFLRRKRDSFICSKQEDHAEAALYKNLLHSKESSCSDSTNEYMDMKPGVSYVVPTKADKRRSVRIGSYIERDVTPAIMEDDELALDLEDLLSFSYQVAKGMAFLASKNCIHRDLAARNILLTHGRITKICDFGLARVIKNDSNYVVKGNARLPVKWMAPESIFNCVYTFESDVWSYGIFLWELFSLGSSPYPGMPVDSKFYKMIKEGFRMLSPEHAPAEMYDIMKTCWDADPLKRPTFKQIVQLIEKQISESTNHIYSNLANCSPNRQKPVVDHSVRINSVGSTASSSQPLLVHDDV

- IC50: 26.9 ± 1.51 nM
Structure (SMILES): S=C(NCc1ccc2c(c1)OCO2)N1CCN(c2ncnc3c2oc2ccccc23)CC1 [Amuvatinib]
